From publication PMC5620576 (Pharmaceutics, 2017)
Values joined by “and” are separate entries in the source; they are usually repeats but may differ in a detail not shown here. Equal entries are not always repeated. “Also recorded” adds a separate entry of the source.

Columns and labels:
[1] = test system: rat cardiac Troponin-I (cTnI); assay: Cardiac toxicity, serum cardiac Troponin-I (cTnI) ELISA after single IV dose; type: in vivo; settings: for cTnI concentrations in serum: 12, 24 and 48 h after single IV 10 mg/kg Dox or equimolar DoxQ
Description: Samples were centrifuged to obtain the serum and stored at −20 °C in a freezer until analysis. On the day of the analysis, cTnI concentrations were measured in serum samples following the manufacturer’s instructions. The area under the effect curve (AUEC) was calculated for cTnI concentrations at 12–48 h post-dosing using the trapezoidal rule by WinNonlin® software.

[2] = Renal toxicity, urinary output over 24 h after single IV dose; type: in vivo, rat; settings: 24 h after single IV 10 mg/kg Dox or equimolar DoxQ
Description: The total urine volume excreted over 24 h post-dosing was compared to the total urine volume excreted over 24 h pre-dosing.

[3] = test system: β-N-acetylglucosaminidase (NAG); assay: Renal toxicity, β-N-acetylglucosaminidase (NAG) in rat urine after single IV dose; type: in vivo; settings: after single IV 10 mg/kg Dox or equimolar DoxQ
Description: Urine samples from pharmacokinetics experiments were collected from metabolic cages at 0 h, 12 h, 24 h, and 48 h and stored at −20 °C until analysis. Concentrations of NAG urine samples were measured using an assay kit from ALPCO Diagnostics (Salem, NH, USA, cat. No. 73-1290050) on a Medica EasyRA automated clinical chemistry analyzer (Medica Corporation, Bedford, MA, USA).

in vivo [4] = settings: male, Sprague-Dawley, rat, serum, po, 10 mg/kg, F, Dox after PO Dox 10 mg/kg, n = 3
[5] = Pharmacokinetic study after IV administration, rat serum and urine; settings: for fe, fraction excreted unchanged in urine: administered compound intact in urine; for CLhepatic: n = 3, CLtot minus CLrenal
[6] = Predicted physicochemical properties (VCCLAB, MarvinSketch, GastroPlus); settings: predicted values
Description: LogP and LogS values of DoxQ were predicted using an online computer software (VCCLAB, Virtual Computational Chemistry Laboratory). pKa, logP, logD at pH 7.4, intrinsic solubility, and solubility at pH 7.4 were calculated using MarvinSketch v. […] 9.0.0007 (Simulations Plus, Inc., Lancaster, CA, USA). […] The melting point of DoxQ was experimentally determined by MEL-TEMPII melting point apparatus from Laboratory Devices (Holliston, MA, USA).

[7] = Intestinal lymphatic delivery, mesenteric lymph duct cannulated rat model; type: in vivo, male Sprague–Dawley rats; settings: over one hour after oral 10 mg/kg, n = 3
From the text: The intestinal transport of DoxQ via lymphatics was examined in vivo by two methods.
Six male Sprague–Dawley rats (~300 g) were obtained from Charles River Labs (Montreal, QC, Canada) and given food (Purina Rat Chow 5001) and water ad libitum in the animal facility for at least three days before use. On the day of surgical operation, rats were anesthetized by isoflurane and the abdominal hair was shaved. Rats were maintained under inhaled anesthesia on a warm surgical table. A ~2.5 cm abdominal midline skin incision was made and extended through the musculature using blunt dissection beginning the incision at a point just above the xyphoid cartilage and proceeding distally. […] The lymph duct was isolated from the surrounding connective tissue and a small incision was made with a bent 23 G needle in the ventral wall of the lymph. A catheter was inserted through the incision and secured by placing a small cellulose patch with a drop of Vetbond^TM over the point of insertion into the lymph duct. When a gradual and continuous flow of lymph was observed, an initial lymph sample was collected into a normal microtube. […] Thereafter, lymph samples were collected over one hour after dosing. The animals were euthanized after the last lymph sample collection.

CYP3A4 = test system: CYP3A4; set-up: method as in PMID 28462502; settings: in vitro; cited from earlier work
[8] = test system: P–gp-positive (MDCK–MDR) cells; set-up: method as in PMID 28462502; settings: cited from earlier work
[9] = test system: triple negative murine breast cancer cell line; set-up: method as in PMID 28462502; settings: cited from earlier work
rat cardiomyocytes = test system: rat cardiomyocytes; set-up: method as in PMID 28462502; settings: cited from earlier work
human cardiomyocytes = test system: human cardiomyocytes; set-up: method as in PMID 28462502; settings: cited from earlier work
CYP1B1 = test system: CYP1B1; set-up: method as in PMID 28462502; settings: expression and catalytic activity; cited from earlier work
[10] = set-up: method as in PMID 28462502; settings: in vitro; cited from earlier work
in vivo [11] = settings: male, Sprague-Dawley, rat, iv, 10 mg/kg
[12] = administered compound intact in rat serum, IV Dox 10 mg/kg or equimolar DoxQ, mean ± SEM
[13] = IV Dox 10 mg/kg or equimolar DoxQ
[14] = administered compound intact, IV Dox 10 mg/kg or equimolar DoxQ
[15] = male, Sprague-Dawley, rat, serum, iv, 10 mg/kg

Structure (SMILES): COc1cccc2c1C(=O)c1c(O)c3c(c(O)c1C2=O)C[C@@](O)(C(=O)CO)C[C@@H]3O[C@H]1C[C@H](N)[C@H](O)[C@H](C)O1 [Dox, Doxorubicin]
- cTnI concentrations in serum [1]: increase in cTnI
- Total urine volume over 24 h [2]: no significant difference
- Cumulative amount of NAG excreted in urine [3]: higher cumulative amounts
- F, bioavailability (Dox after PO Dox 10 mg/kg, n = 3): 8.57 ± 0.71%
- bioavailability (in vivo [4]): ~8.5%
- Vss of Dox relative to Vss of DoxQ ([5]; IV, equimolar doses): ~ 80 fold
- C0 [5, 12]: 24.7 ± 14.2 µg/mL
- Clast [5, 12]: 0.12 ± 0.03 µg/mL
- fe, fraction excreted unchanged in urine [5, 13]: ~ 11% and 10.73 ± 3.14%
- CLhepatic [5, 14]: 2.35 ± 0.36 L/h/kg
- AUC(0-inf) [5, 15]: 4790 ± 1830 ng·h/mL
- AUC(0-t) [5, 15]: 3970 ± 700 ng·h/mL
- CL renal [5, 15]: 4.67 mL/min/kg
- clearance [5, 15]: 43.8 mL/min/kg
- half-life [5, 15]: 281 ± 48 min
- k el [5, 15]: 4.44e-05 s⁻¹
- C0 ([5]; male, Sprague-Dawley, rat, serum, iv, 10 mg/kg, C0, administered compound intact in rat serum, IV Dox 10 mg/kg or equimolar DoxQ, mean ± SEM): ~25 µg/mL
- Vd ([5]; male, Sprague-Dawley, rat, serum, iv, 10 mg/kg, Vss, administered compound intact, IV Dox 10 mg/kg or equimolar DoxQ, mean ± SEM): 6.35 ± 2.11 L/kg

Structure (SMILES): COc1cccc2c1C(=O)c1c(O)c3c(c(O)c1C2=O)CC(O)(C(=O)CO)CC3OC1CC(NC(=O)CNC(=O)Oc2ccc(-c3oc4cc(O)cc(O)c4c(=O)c3O)cc2O)C(O)C(C)O1 (centres unmarked) [DoxQ]
- LogP of DoxQ relative to Dox [6]: 3–5 fold
- LogD7.4 of DoxQ relative to Dox ([6]; pH 7.4): 25 fold
- Cumulative amount of Dox in mesenteric lymph fluid, compared to after Dox [7]: twice as high; also recorded: two-fold higher
- cTnI concentrations in serum ([1]; 10 mg/kg): also had an increase in cTnI at each time point
- AUEC of cTnI concentrations ([1]; 12–48 h after single IV 10 mg/kg Dox or equimolar DoxQ): lower than the AUEC after Dox
- Total urine volume over 24 h [2]: no significant difference
- Cumulative amount of NAG excreted in urine ([3]; 10 mg/kg): lower after IV DoxQ than Dox
- Intact DoxQ in serum after oral dosing (PO DoxQ): not detected
- Inhibition of CYP3A4 (CYP3A4): inhibited
- Cellular uptake compared to free Dox [8]: higher cellular uptake
- Anti-cancer activity [9]: retained anti-cancer activity
- Toxicity to cardiomyocytes compared to Dox (rat cardiomyocytes): less toxic; also recorded: less cardiotoxic than Dox
- Toxicity to cardiomyocytes compared to Dox (human cardiomyocytes): less toxic; also recorded: less cardiotoxic than Dox
- Effect on CYP1B1 (CYP1B1): inhibitory effects
- Release of Dox and quercetin from DoxQ [10]: controlled release of both Dox and quercetin released from DoxQ over four days
- AUC(0-t) (in vivo [11]): 18600 ± 1980 ng·h/mL
- CL renal (in vivo [11]): 0.333 mL/min/kg
- clearance (in vivo [11]): 8.83 mL/min/kg
- half-life (in vivo [11]): 9.6 ± 18 min
- k el (in vivo [11]): 0.00127 s⁻¹
- C0 (in vivo [11]; C0, administered compound intact in rat serum, IV Dox 10 mg/kg or equimolar DoxQ, mean ± SEM): ~108 µg/mL
- Vd (in vivo [11]; Vss, administered compound intact, IV Dox 10 mg/kg or equimolar DoxQ, mean ± SEM): 0.138 ± 0.015 L/kg
- AUC of intact DoxQ relative to AUC of Dox after Dox ([5]; IV, equimolar doses): 5 fold
- C0 / serum concentration of intact DoxQ relative to Dox after Dox ([5]; IV, equimolar doses): 4–5 fold and 5 fold
- C0 [5, 12]: 108 ± 26.4 µg/mL
- Clast [5, 12]: 1.11 ± 0.17 µg/mL
- fe, fraction excreted unchanged in urine [5, 13]: ~ 5% and 4.32 ± 1.005%
- Vss ([5]; administered compound intact, IV Dox 10 mg/kg or equimolar DoxQ, mean ± SEM): 0.08 ± 0.015 L/kg
- CLhepatic [5, 14]: 0.51 ± 0.06 L/h/kg
